Results from patent US5723494A, “Derivatives of glutamic and aspartic acids, a method of preparing them, and their use as drugs for enhancing memory and learning” (priority 1993, dated 1998).

How the values were obtained:
[1] = Memory-enhancement activity in the active avoidance test in the rat; assay type: in vivo, rat (male Wistar); conditions: for % variation vs controls, avoidance learning / % variation vs controls, avoidance memory / % variation vs controls, escape response / % variation vs controls, shock response / % variation vs controls, total avoidance response / Average % avoidance learning, last 10 TR / Average % avoidance memory, first 10 TR/40 TR / Average % escape response / Average % shock response / Average % total avoidance response, 40 trials: fifth day
From the text: 3) Memory-enhancement activity in the "active avoidance" test in the rat
Male Wistar rats which weighed about 200 g and had not fasted were used. The method consisted of making the animal understand that, in order to avoid a shock, it must go from one compartment of the equipment used (a shuttle box) to the other. For this reason it is defined as active avoidance (because the animal takes action to avoid the punishment).
In this test it is also possible to discriminate between two different parameters: memory and learning.
The equipment consisted of a cage divided into two portions by a wall with an opening at floor level to enable the animal to go from one portion of the cage to the other.
The reinforcement, that is, the reason which forced the rat to become conditioned to the sound and to the light, consisted of an electrical stimulus coming from the grid floor of the cage (an Unconditioned stimulus). The floor of the cage was constituted by a metal grid for the passage of the current and could rock so that, each time the rat passed through the dividing hole, the floor tilted, due to its weight, interrupting the current.
The test lasted for five days. On the first day, the animals were subjected to the first session of 40 cycles with an interval of 30 sec between cycles (duration of the session=20 minutes).
For each 30 sec cycle, a light stimulus and a sound stimulus lasting for 3 seconds were applied, followed by the 0.4 mA shock, which also lasted for 3 sec.
At the end of the first day, the rats were selected randomly in homogeneous groups and treated with the product under test or with physiological solutions (controls).
On subsequent days, the rats underwent the first treatment 15 minutes before the session and the second treatment at the end of the day. In 5 days of tests the animal thus underwent 8 treatments in total.
The 40 cycles were divided into 4 sessions each of 10 cycles for the 5 days' duration of the test.
The performance of each animal was evaluated as: % shock response, % escape response; % total avoidance response (these refer to all 40 cycles of each day); memory, as % of the avoidance responses in the first session of each day (the first 10 cycles); learning: as % of avoidance responses in the fourth session of each day (the last 10 cycles).
All the % were calculated on regression lines calculated on the basis of the responses obtained daily for each individual parameter, on the fifth (last) day of the experiment.
The results are expressed as the percentage variation of the averages of the individual responses obtained for the treated groups in comparison with the control group. The results thus calculated are given in Table 3 below, which gives the statistical analysis between the treatment groups against the controls, carried out by analysis of the relative variance with respect to the overall results for the 5 days.

[2] = Antidepressant activity in the behavioural despair test in the mouse; assay type: in vivo, mouse (male CD1)
[3] = Acute toxicity (LD50) in the mouse; conditions: in vivo

CC1(C)CCC(NC(=O)[C@@H](N)CCC(=O)O)CC1 [Compound 23, 1-(4,4-dimethylcyclohexyl)-L-isoglutamine[4-amino-5-(4',4'-dimethylcyclohexylamine)-5-oxopentanoic acid (S)]]
% variation vs controls, avoidance learning ([1]; 1 mg/kg i.p. 2/day): +17.2% | % variation vs controls, avoidance memory ([1]; 1 mg/kg i.p. 2/day): -16.7% | % variation vs controls, escape response ([1]; 1 mg/kg i.p. 2/day): -11.1% | % variation vs controls, shock response ([1]; 1 mg/kg i.p. 2/day): -8.6% | % variation vs controls, total avoidance response ([1]; 1 mg/kg i.p. 2/day): +33.3% | Average % avoidance learning, last 10 TR ([1]; 1 mg/kg i.p. 2/day): 34% | Average % avoidance memory, first 10 TR/40 TR ([1]; 1 mg/kg i.p. 2/day): 10% | Average % escape response ([1]; 1 mg/kg i.p. 2/day): 8% | Average % shock response ([1]; 1 mg/kg i.p. 2/day): 64% | Average % total avoidance response, 40 trials ([1]; 1 mg/kg i.p. 2/day): 26% | % variation vs controls, avoidance learning ([1]; 3 mg/kg i.p. 2/day): +82.7% | % variation vs controls, avoidance memory ([1]; 3 mg/kg i.p. 2/day): +142% | % variation vs controls, escape response ([1]; 3 mg/kg i.p. 2/day): +144% | % variation vs controls, shock response ([1]; 3 mg/kg i.p. 2/day): -51.4% | % variation vs controls, total avoidance response ([1]; 3 mg/kg i.p. 2/day): +109% | Average % avoidance learning, last 10 TR ([1]; 3 mg/kg i.p. 2/day): 53% | Average % avoidance memory, first 10 TR/40 TR ([1]; 3 mg/kg i.p. 2/day): 29% | Average % escape response ([1]; 3 mg/kg i.p. 2/day): 22% | Average % shock response ([1]; 3 mg/kg i.p. 2/day): 34% | Average % total avoidance response, 40 trials ([1]; 3 mg/kg i.p. 2/day): 44% | % variation vs controls, avoidance learning ([1]; 10 mg/kg i.p. 2/day): +145% | % variation vs controls, avoidance memory ([1]; 10 mg/kg i.p. 2/day): +183% | % variation vs controls, escape response ([1]; 10 mg/kg i.p. 2/day): +241% | % variation vs controls, shock response ([1]; 10 mg/kg i.p. 2/day): -81.4% | % variation vs controls, total avoidance response ([1]; 10 mg/kg i.p. 2/day): +166% | Average % avoidance learning, last 10 TR ([1]; 10 mg/kg i.p. 2/day): 71% | Average % avoidance memory, first 10 TR/40 TR ([1]; 10 mg/kg i.p. 2/day): 34% | Average % escape response ([1]; 10 mg/kg i.p. 2/day): 31% | Average % shock response ([1]; 10 mg/kg i.p. 2/day): 13% | Average % total avoidance response, 40 trials ([1]; 10 mg/kg i.p. 2/day): 56% | Shock responses (in words) ([1]; rat, i.p.): greatly reduced | Total avoidance responses (in words) ([1]; rat, i.p.): significantly increases the total avoidance responses in a dose-dependent manner | inhibition in vivo at 3 mg/kg ([2]; 5 min, 3 mg/kg IP, 5 minutes, read-out: Decrease in immobility (as %) vs the controls): 14% | inhibition in vivo at 10 mg/kg ([2]; 5 min, 10 mg/kg IP, 5 minutes, read-out: Decrease in immobility (as %) vs the controls): 31% | inhibition in vivo at 30 mg/kg ([2]; 5 min, 30 mg/kg IP, 5 minutes, read-out: Decrease in immobility (as %) vs the controls): 94% | Antidepressant activity (in words) ([2]; IP): antidepressant effect of the same order of magnitude as the comparison drug used, amitriptyline | ED50 ([2]; IP, read-out: ED50 (dose antagonising immobility time by 50%)): 11.1 mg/kg | LD50 ([3]; IV): 290 mg/kg | LD50 ([3]; po, OS): 1300 mg/kg
